This passage reports Kd results from ChEMBL document CHEMBL3991601, “The target landscape of clinical kinase drugs” (Science, 2017).

For test [1], the target named is Tyrosine-protein kinase Yes (Homo sapiens, UniProt P07947).
Test [2] has as its target T1, Serine/threonine-protein kinase Nek2 (Homo sapiens, UniProt P51955).
T1 sequence (P51955 whole entry): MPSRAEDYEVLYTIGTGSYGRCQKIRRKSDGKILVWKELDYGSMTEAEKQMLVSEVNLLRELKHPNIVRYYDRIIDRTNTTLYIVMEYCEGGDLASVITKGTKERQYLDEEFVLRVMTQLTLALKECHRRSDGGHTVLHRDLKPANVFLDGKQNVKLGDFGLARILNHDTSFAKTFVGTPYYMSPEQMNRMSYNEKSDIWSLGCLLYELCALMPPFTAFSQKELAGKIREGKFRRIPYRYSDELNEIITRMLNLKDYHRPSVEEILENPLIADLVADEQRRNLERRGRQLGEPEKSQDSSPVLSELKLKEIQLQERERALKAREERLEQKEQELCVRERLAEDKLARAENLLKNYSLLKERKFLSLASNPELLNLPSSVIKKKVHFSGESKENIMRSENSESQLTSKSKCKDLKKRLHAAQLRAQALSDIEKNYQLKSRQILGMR

Test [3] has as its target T2, Acyl-CoA dehydrogenase family member 11 (Homo sapiens, UniProt Q709F0).
T2 sequence (Q709F0 whole entry): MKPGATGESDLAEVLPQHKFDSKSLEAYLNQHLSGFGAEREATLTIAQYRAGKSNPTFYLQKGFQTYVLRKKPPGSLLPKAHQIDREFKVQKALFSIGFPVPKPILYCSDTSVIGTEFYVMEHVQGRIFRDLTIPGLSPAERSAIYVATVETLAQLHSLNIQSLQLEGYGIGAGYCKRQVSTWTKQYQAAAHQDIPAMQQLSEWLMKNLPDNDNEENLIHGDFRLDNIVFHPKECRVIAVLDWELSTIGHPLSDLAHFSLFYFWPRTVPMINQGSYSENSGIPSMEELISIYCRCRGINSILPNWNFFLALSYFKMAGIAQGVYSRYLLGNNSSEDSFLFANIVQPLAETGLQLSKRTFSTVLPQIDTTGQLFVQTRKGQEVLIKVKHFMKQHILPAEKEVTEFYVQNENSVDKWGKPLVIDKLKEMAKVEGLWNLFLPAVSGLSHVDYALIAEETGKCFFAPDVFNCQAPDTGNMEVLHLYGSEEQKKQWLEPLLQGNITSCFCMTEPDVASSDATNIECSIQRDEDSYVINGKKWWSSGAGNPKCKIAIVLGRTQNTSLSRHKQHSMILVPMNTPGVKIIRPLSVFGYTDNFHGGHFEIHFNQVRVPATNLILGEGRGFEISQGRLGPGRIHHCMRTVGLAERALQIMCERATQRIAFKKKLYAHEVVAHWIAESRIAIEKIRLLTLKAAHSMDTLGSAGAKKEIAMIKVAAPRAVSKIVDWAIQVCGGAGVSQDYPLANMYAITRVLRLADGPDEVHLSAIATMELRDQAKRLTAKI

The target in test [4] is Structural maintenance of chromosomes protein 2 (Homo sapiens, UniProt O95347).
Test [5] deals with Protein kinase C delta type (Homo sapiens, UniProt Q05655).
Test [6] deals with Tyrosine-protein kinase ABL1 (Homo sapiens, UniProt P00519).
Test [7] has as its target T3, Cyclin-G-associated kinase (Homo sapiens, UniProt O14976).
T3 sequence (O14976 whole entry): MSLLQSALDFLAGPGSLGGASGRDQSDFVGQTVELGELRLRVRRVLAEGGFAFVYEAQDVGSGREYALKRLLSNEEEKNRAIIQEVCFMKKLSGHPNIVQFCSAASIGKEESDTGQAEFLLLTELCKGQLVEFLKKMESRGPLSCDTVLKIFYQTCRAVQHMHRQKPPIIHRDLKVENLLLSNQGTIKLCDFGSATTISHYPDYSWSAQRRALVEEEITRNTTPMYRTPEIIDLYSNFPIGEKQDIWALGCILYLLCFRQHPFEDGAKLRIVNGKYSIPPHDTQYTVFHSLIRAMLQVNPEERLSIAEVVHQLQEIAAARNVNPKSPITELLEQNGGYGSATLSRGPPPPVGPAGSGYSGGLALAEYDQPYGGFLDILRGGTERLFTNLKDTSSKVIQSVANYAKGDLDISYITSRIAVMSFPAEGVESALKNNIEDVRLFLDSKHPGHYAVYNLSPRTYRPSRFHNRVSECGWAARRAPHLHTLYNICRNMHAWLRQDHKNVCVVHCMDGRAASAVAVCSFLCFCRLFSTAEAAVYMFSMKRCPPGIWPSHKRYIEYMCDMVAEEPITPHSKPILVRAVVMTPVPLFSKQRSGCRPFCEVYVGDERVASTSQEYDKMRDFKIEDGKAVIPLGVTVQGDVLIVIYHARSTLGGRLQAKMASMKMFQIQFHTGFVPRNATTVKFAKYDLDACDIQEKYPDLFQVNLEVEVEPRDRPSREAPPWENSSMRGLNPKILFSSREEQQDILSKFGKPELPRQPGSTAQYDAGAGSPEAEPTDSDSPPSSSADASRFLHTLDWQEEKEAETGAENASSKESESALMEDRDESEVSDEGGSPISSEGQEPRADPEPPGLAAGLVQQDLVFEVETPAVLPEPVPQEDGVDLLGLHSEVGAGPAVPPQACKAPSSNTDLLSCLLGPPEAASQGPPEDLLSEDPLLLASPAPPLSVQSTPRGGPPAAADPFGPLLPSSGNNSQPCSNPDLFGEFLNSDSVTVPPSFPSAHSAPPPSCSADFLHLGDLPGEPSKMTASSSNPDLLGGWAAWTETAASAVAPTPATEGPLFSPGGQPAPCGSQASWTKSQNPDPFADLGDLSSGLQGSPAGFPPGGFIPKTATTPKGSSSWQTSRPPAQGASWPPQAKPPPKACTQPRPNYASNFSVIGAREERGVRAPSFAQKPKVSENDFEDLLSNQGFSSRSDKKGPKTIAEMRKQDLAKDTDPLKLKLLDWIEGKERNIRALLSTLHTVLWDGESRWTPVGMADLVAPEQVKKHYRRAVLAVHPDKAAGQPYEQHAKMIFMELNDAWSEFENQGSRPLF

For test [8], the target named is Calcium/calmodulin-dependent protein kinase kinase 2 (Homo sapiens, UniProt Q96RR4).

Active and inactive are the calls of the source. Cut-off read from the data, not from the text of the source, for most assays here: actives have a measured Kd and inactives only a lower limit. Bounds are passed on as bounds.
Note: in the data inactive means no Kd found up to 30 µM.

Sequence of Tyrosine-protein kinase ABL1 (P00519 whole entry): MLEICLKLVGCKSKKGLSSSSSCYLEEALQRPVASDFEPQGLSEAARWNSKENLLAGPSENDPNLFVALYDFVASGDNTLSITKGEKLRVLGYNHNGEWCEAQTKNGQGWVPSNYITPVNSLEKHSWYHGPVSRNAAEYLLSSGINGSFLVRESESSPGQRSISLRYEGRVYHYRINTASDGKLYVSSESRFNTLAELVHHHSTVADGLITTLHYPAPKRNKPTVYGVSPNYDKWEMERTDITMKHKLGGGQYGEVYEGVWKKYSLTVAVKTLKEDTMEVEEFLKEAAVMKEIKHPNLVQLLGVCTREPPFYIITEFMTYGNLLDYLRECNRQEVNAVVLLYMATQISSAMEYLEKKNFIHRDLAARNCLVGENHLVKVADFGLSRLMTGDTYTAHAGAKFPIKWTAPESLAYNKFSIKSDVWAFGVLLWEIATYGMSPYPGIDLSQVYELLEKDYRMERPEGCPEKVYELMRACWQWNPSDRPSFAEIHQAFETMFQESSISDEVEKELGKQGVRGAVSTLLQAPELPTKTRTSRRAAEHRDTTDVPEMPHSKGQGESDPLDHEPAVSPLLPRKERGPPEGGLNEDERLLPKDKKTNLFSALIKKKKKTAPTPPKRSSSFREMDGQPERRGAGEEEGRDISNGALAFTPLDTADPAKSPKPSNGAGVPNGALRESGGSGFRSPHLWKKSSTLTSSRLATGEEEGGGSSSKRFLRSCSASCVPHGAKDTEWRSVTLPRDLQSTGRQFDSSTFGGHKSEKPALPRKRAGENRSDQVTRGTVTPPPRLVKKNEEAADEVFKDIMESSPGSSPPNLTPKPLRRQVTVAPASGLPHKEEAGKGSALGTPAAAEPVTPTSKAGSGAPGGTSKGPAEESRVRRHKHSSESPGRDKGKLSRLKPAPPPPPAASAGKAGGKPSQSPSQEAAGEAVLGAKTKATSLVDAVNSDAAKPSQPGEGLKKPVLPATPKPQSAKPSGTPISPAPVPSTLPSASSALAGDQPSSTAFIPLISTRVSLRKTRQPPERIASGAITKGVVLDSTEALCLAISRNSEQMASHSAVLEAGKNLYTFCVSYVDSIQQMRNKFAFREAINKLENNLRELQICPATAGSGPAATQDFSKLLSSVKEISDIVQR
Sequence of Tyrosine-protein kinase Yes (P07947 whole entry): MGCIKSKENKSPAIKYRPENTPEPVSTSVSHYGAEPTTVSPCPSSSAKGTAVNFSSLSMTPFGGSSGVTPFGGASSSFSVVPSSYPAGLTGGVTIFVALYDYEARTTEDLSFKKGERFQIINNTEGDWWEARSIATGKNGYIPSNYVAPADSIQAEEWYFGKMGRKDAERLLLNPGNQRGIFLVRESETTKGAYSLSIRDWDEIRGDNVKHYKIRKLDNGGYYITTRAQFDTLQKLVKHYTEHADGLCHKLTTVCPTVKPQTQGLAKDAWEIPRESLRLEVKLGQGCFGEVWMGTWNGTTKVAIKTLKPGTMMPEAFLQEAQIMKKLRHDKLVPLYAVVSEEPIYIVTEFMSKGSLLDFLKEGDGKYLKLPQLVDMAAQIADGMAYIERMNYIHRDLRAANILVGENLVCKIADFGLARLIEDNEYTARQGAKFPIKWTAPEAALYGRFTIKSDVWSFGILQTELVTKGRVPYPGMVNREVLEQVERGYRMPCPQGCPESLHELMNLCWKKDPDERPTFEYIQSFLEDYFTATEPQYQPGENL
Sequence of Protein kinase C delta type (Q05655 whole entry): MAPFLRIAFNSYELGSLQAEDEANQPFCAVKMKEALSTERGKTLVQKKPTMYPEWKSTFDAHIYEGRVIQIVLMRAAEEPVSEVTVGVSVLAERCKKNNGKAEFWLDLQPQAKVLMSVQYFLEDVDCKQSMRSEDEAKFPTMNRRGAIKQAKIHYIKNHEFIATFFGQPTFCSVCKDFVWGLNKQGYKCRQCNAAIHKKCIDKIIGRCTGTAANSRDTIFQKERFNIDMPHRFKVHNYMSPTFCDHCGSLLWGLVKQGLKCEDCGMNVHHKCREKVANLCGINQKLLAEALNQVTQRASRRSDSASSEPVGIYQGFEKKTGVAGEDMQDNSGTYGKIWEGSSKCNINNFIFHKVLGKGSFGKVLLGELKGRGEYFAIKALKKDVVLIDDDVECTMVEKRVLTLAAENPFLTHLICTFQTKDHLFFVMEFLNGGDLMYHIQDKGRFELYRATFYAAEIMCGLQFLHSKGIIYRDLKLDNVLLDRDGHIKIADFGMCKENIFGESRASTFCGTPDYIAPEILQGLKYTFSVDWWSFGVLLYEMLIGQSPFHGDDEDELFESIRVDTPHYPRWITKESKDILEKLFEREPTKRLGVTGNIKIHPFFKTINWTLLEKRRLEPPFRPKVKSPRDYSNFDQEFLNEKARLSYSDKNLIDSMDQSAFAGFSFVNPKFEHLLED
Sequence of Calcium/calmodulin-dependent protein kinase kinase 2 (Q96RR4 whole entry): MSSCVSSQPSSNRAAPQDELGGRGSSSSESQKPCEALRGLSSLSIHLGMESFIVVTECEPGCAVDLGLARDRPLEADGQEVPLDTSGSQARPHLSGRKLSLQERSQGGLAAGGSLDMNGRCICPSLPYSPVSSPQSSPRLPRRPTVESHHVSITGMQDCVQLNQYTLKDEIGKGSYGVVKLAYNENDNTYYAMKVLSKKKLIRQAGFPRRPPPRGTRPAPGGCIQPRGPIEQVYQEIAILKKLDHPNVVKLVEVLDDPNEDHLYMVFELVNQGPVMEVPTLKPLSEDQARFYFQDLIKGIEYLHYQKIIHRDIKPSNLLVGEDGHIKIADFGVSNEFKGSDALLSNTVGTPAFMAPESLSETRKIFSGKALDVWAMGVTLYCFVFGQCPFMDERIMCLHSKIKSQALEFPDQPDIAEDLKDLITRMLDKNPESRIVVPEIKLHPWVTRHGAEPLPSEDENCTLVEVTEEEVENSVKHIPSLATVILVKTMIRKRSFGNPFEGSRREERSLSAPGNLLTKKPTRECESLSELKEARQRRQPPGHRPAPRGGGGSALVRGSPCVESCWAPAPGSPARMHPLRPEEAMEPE
Sequence of Structural maintenance of chromosomes protein 2 (O95347 whole entry): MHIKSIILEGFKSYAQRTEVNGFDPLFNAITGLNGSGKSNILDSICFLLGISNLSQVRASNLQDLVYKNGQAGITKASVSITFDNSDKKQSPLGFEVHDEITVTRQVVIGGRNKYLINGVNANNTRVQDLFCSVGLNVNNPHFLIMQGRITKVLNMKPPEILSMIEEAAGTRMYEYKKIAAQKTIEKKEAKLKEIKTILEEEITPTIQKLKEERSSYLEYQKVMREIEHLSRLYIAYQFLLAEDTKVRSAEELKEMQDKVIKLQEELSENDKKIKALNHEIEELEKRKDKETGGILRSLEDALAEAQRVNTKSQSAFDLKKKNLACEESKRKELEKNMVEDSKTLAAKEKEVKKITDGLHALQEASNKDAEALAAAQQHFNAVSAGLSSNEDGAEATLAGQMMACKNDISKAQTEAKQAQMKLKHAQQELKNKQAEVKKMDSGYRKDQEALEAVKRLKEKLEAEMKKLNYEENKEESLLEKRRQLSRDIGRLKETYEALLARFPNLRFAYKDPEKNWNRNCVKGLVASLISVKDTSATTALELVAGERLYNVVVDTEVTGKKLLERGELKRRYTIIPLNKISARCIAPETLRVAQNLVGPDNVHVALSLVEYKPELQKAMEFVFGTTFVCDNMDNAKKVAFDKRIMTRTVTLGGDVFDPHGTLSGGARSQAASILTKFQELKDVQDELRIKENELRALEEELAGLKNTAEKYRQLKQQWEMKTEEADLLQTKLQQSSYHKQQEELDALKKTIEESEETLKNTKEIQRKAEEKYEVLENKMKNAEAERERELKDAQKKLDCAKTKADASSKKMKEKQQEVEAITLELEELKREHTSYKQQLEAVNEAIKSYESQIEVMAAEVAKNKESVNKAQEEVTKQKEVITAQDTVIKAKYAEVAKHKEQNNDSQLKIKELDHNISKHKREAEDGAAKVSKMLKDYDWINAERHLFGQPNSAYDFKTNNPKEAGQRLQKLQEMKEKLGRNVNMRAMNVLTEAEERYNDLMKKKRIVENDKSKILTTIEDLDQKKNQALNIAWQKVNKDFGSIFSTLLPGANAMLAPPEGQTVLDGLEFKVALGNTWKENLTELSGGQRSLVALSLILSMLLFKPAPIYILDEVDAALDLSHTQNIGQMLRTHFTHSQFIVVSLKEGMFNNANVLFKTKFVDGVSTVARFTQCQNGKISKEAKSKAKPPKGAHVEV

`COc1cc2ncnc(Nc3ccc(F)c(Cl)c3)c2cc1NC(=O)/C=C/CN1CCCCC1` [DACOMITINIB ANHYDROUS]: the Kd in test [1], in test [2], in test [3], in test [4], in test [5] and in test [6] was > 30 µM (inactive) in each case. The Kd in test [7] is 0.168 µM (active); in test [8], > 30 µM (inactive).

For `COCCN1CCN(Cc2ccc(-c3n[nH]c4c3C(=O)c3c(NC(=O)NN5CCOCC5)cccc3-4)cc2)CC1` [RGB-286638], the Kd in test [1], in test [2], in test [3], in test [4], in test [5] and in test [6] was > 30 µM (inactive) throughout. Besides, the dissociation constant (Kd) in test [7] is 0.004 µM (active); in test [8], > 30 µM (inactive).

On to `O=C(NOC[C@H](O)CO)c1ccc(F)c(F)c1Nc1ccc(I)cc1F` [MIRDAMETINIB], for which the Kd in test [1], in test [2], in test [3], in test [4], in test [5] and in test [6] was > 30 µM (inactive) in each case. The Kd in test [7] and in test [8] was > 30 µM (inactive) each time.

Consider `CNC(=O)c1cccc(-c2ccc3c(N4CCOC[C@@H]4C)nc(N4CCOC[C@@H]4C)nc3n2)c1` [VISTUSERTIB], for which the Kd in test [1], in test [2], in test [3], in test [4], in test [5] and in test [6] was > 30 µM (inactive) in each case. Further, the Kd in test [7] and in test [8] was > 30 µM (inactive) in each case.

For `COc1cc2nccc(Oc3ccc(NC(=O)C4(C(=O)Nc5ccc(F)cc5)CC4)cc3)c2cc1OC` [CABOZANTINIB], the Kd is > 30 µM (inactive) in test [1]; > 30 µM (inactive) in test [2]; > 30 µM (inactive) in test [3]; > 30 µM (inactive) in test [4]; > 30 µM (inactive) in test [5]; 1.1 µM (active) in test [6]. The Kd in test [7] and in test [8] was > 30 µM (inactive) throughout.

Consider `Cc1cc(Nc2nc(N[C@@H](C)c3ncc(F)cn3)ncc2Cl)n[nH]1` [AZD-1480], for which the Kd in test [1], in test [2], in test [3], in test [4], in test [5] and in test [6] was > 30 µM (inactive) throughout. In addition, the Kd in test [7] and in test [8] was > 30 µM (inactive) throughout.

For the molecule `O=C(Nc1ccc(OC(F)(F)F)cc1)c1sccc1NCc1ccnc2ccccc12` [OSI-930], the Kd in test [1], in test [2], in test [3], in test [4], in test [5] and in test [6] was > 30 µM (inactive) throughout. Also, the Kd in test [7] and in test [8] was > 30 µM (inactive) throughout.

With `O=c1[nH]c([C@@H]2CCCN2)nc2c1oc1ccc(Cl)cc12`, the Kd in test [1], in test [2], in test [4], in test [5], in test [6] and in test [7] was > 30 µM (inactive) each time. For the same molecule, the Kd in test [8] is > 30 µM (inactive).

As for `CN1CCN(c2nc(C3=C(c4c[nH]c5ccccc45)C(=O)NC3=O)c3ccccc3n2)CC1` [SOTRASTAURIN], the Kd in test [1] is > 30 µM (inactive); in test [2], > 30 µM (inactive); in test [4], > 30 µM (inactive); in test [5] it was 0.005 µM (active); in test [6], > 30 µM (inactive); in test [7], > 30 µM (inactive). In test [8], the Kd was > 30 µM (inactive).

In the case of `CNC(=O)c1cc(COc2nnc(Nc3ccc(Cl)cc3)c3ccoc23)ccn1` [TELATINIB], the Kd in test [1], in test [2], in test [4], in test [5], in test [6] and in test [7] was > 30 µM (inactive) each time. Also, the Kd in test [8] is > 30 µM (inactive).

In the case of `C=CC(=O)Nc1cc(Nc2nccc(-c3cn(C)c4ccccc34)n2)c(OC)cc1N(C)CCN(C)C` [OSIMERTINIB], the Kd in test [1], in test [2], in test [4], in test [5], in test [6] and in test [7] was > 30 µM (inactive) throughout. In addition, the Kd in test [8] was > 30 µM (inactive).

For `O=C(O)c1ccc2c(c1)nc(Nc1cccc(Cl)c1)c1ccncc12` [SILMITASERTIB], the Kd in test [1] was > 30 µM (inactive); in test [2], > 30 µM (inactive); in test [4] it was > 30 µM (inactive); in test [5], > 30 µM (inactive); in test [6], > 30 µM (inactive); in test [7], 5.16 µM (active). Also, the Kd in test [8] was > 30 µM (inactive).

For the molecule `CCc1nc(C(N)=O)c(Nc2ccc(N3CCC(N4CCN(C)CC4)CC3)c(OC)c2)nc1NC1CCOCC1` [GILTERITINIB], the Kd in test [2] is 0.247 µM; in test [3], > 30 µM (inactive); in test [4], > 30 µM (inactive); in test [5] it was > 30 µM (inactive); in test [6], > 30 µM (inactive); in test [7], 0.009 µM (active). Further, in test [8], the Kd was 2.65 µM (active).
